Measurements as given in US9163018B2, “Method of treatment of age-related macular degeneration (AMD)” (Prana Biotechnology Limited, priority 2006, dated 2015).

What was measured:
[1] = test system: primary cortical neuronal cultured cells; assay: Test compound cytotoxicity, MTS assay, primary cortical neuronal cultures; assay type: cell-based, mouse; settings: for Cytotox (% viable) Neuronal cells at 1 μM: 1 μM test compound; for Cytotox (% viable) Neuronal cells at 10 μM: 10 μM test compound
Procedure: Assay 2. Neurotoxicity Assays
Primary Cortical Neuronal Cultures
Media was then replaced with Neurobasal media (Invitrogen Life Technologies) and B27 supplements (Invitrogen Life Technologies). Cultures were maintained at 37° C. in 5% CO2. Prior to experimentation, the culture medium was replaced with Neurobasal media and B27 minus antioxidants (Invitrogen Life Technologies).
(§1) Assay 3. MTS Assay for Cell Viability
(§2) Cell viability is determined using the MTS assay. Culture medium is replaced with fresh neurobasal medium plus B27 supplements minus antioxidants. 1/10th volume MTS solution (Cell Titre 96 Aqueous One, Promega Corporation) and incubated at 37° C., 2 hrs. 200 microliter aliquots are measured with a spectrophotometer at 560 nm.
Assay 4. Assay for Test Compound Cytoxicity
Neuronal cortical cells were cultured for five days as per Assay 2 in NB media and B27 supplement.
On day six the test compounds were added to the neuronal cell cultures in NB media and B27 supplement minus antioxidants.
Test compounds were dissolved in 100% DMSO to a concentration of 2.5 mM (10 mM if excess compound was weighed out per vial—then diluted to 2.5 mM).
Test compounds were not added directly to cells, instead they were added to a 48 well ‘Drug Plate’ as comprised below:
The Drug Plate was incubated at 37° C. for 15 mins. 200 μl of each well was added in triplicate to the corresponding cell plate. The cell plate was incubated at 37 C, for 4 days.
On completion of the assay, 1/10 volume MTS was added per well of plate (ie 25 μl/250 μl). The plates were incubated at 37 C for 2 hrs, and then absorbance was read at 560 nm.

[2] = target: T1, Abeta:Zn (25:50 μM) Synthetic Aggregations (Homo sapiens, UniProt P05067); assay: Disaggregation of Abeta:Zn synthetic aggregates (ThT fluorescence); assay type: biochemical; settings: for Disaggregation % Aggregate reduction at 5 μM: 5 μM test compound; for EC50: Abeta:Zn 25:50 μM aggregates
T1 construct: PB Compound Mediated Dissolution of Aggregated Abeta 1-42; purchased Keck Laboratory, Yale University School of Medicine
Procedure: PB Compound Mediated Dissolution of Aggregated Abeta 1-42
Abeta1-42, is available from the Keck Laboratory, Yale University School of Medicine. PBS (pH 6.6): Sigma Cat# D-8662. Zn(ZnCl2): BDH Cat#100884E. (Dissolved in water in 1 mM concentration) DMSO: Ajax Cat#2225. Thioflavin T: Sigma Cat# T-3516. (Dissolved in water in 1 mM concentration)
By way of example of an amyloid composition, Abeta is dissolved in distilled water and peptide concentration is assessed by measured absorption at 214 nm in UV spectrometer. An aggregation reactive mixture (per one concentration of one testing compound) is set us as follows: Abeta: 25 μM, ZnCl2 50 μM, ThT 50 μM, PBS to make up to 500 μl. The tube is wrapped with foil and incubated at 37 degrees by rotation for 24 hours. A serial dilution of each test compound is made up in DMSO, for example: 100 μM, 500 μM, 1000 μM, 2500 μM and 5000 μM. The final concentrations are 1, 5, 10, 25 and 50 μM, 5 μl of each of these compounds is placed in a centrifuge tube and 5 μl of DMSO is added to both negative and positive control tubes. 495 μl of aggregates (after 24 hours incubation) is added to the centrifuge tube. The negative control is PBS plus ZnCl2 and ThT and DMSO. The positive control is aggregates plus DMSO. The tubes are incubated at 37 degrees for further 2 hours with rotation. Samples are measured for ThT fluorescence using an LS55 (Perkin Elmer) fluorimeter in a cuvette (500 μl volume). The excitation wavelength is 450 nm and the emission wavelength is 480 nm. Data are analyzed using graph pad prism program. The tested compounds included so called “PB” compounds.

[3] = target: T2, Aβ 1-42 (Homo sapiens, UniProt P05067); assay: Fluorometric H2O2 assay (inhibition of Abeta H2O2 production); assay type: biochemical; settings: concentration required to inhibit 50% of Abeta H2O2 production; read-out: H2O2 IC50
T2 construct: The reaction solutions contained Aβ 1-42 at concentrations
Procedure: Assay 1. Fluorometric H2O2 Assay
A fluorometric assay was used to test the ability of a test compound to inhibit hydrogen peroxide generation by Aβ in the presence of copper based on dichlorofluoroscein diacetate (DCF; Molecular Probes, Eugene Oreg.). The DCF solution (5 mM) in 100% dimethyl sulphoxide (previously purged with argon for 2 hr at 20° C.) was deacetylated in the presence of 0.25M NaOH for 30 min and neutralized at pH 7.4 to a final concentration of 1 mM. Horseradish peroxidase (HRP) stock solution was prepared to 1 μM at pH 7.4. The reactions were carried out in PBS, pH 7.4 in a 96 well plate (total volume=250 μl/well). […] The reaction mixture was incubated at 37 C for 60 min. […] H2O2 concentration may be established by comparing fluorescence with the H2O2 standards, Inhibition of Aβ H2O2 production was assayed by including a given concentration of test compound(s) in the test wells.

[4] = test system: M17 human neuroblastoma cells; assay: Cytotoxicity, M17 human neuroblastoma cells; assay type: cell-based; settings: for Cytotox (% viable) M17 cells at 1 μM: 1 μM test compound; for Cytotox (% viable) M17 cells at 10 μM: 10 μM test compound
Procedure: as §1, §2

T2 sequence (P05067 672-713 limits assumed): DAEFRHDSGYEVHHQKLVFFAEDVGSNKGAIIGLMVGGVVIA
T1 sequence (P05067 672-713 limits assumed): as above

Compound | Cytotox (% viable) Neuronal cells at 1 μM [1] [%] | Cytotox (% viable) Neuronal cells at 10 μM [1] [%] | Disaggregation % Aggregate reduction at 5 μM [2] [%] | EC50 [2] [µM] | IC50 [3] [µM] | Cytotox (% viable) M17 cells at 1 μM [4] [%] | Cytotox (% viable) M17 cells at 10 μM [4] [%]
Oc1c(I)cc(I)c2cccnc12 [PB 46] | 91 | 95 | 58.7 | 4.1 | 0.4 |  | 
Nc1ccccc1NC(=O)c1cc(O)c2cccc(O)c2n1 [PB 986] | 98 | 82 | 28 | 18.4 | 3.6 |  | 
O=c1c(-c2ccc(Cl)cc2)cnc2c(O)cccn12 [PB 1069] | 97 | 42 | 34.8 | 11.3 | 0.48 | 41.2 | 25.8
CNCc1ccc2c(Cl)cc(Cl)c(O)c2n1.Cl [PB 1104] | 86 | 78 | 19.1 | > 20 | 0.35 |  | 
CCN(CC)Cc1ccc2c(Cl)cc(Cl)c(O)c2n1.Cl [PB 1106] | 74 | 70 | 17.9 | 14.2 | 0.4 |  | 
Br.Oc1cccc2c(=S)n(Cc3ccccn3)cnc12 [PB 1113] | 97 | 90 | 25.5 | > 20 | 3.2 |  | 
CCn1cnc2c(O)c(Cl)cc(Cl)c2c1=O [PB 1115] | 93 | 58 | 17 | > 20 | 0.95 | 104.3 | 95.9
CCOC(=O)c1cnc2c(O)c(CC)ncc2c1 [PB 1116] | 103 | 92 | 16.8 | > 20 | 1.63 |  | 
O=C1c2ccccc2C(=O)N1CCn1cnc2c(O)c(I)ccc2c1=O [PB 1170] |  |  | 53 | 4.28 | 0.72 | 127.4 | 104.8
O=C(Nc1nc2ccc(F)cc2s1)c1cnc2c(O)cccn2c1=O [PB 1174] |  |  | 22 | 14.7 | 0.96 | 60.1 | 34.2
CCCCCn1cnc2c(O)c(I)ccc2c1=O [PB 1176] |  |  | 45 | 6.9 | 0.3 | 86.3 | 38.5
O=C(Cn1cnc2c(O)cccc2c1=O)Nc1ccccn1 [PB 1182] |  |  | 24 | > 20 | 0.59 | 110.1 | 98.2
CCC(C)Cn1cnc2c(O)cccc2c1=O (stereo not shown) [PB 1184] |  |  | 49 | 5.27 | 0.54 | 102.7 | 47.2
O=C1c2ccccc2C(=O)N1CCn1cnc2c(O)cccc2c1=O [PB 1185] |  |  | 35 | 9.5 | 0.6 | 103.9 | 106.5
CCN(CC)CCNC(=O)c1cnc2c(O)cccn2c1=O [PB 1199] |  |  | 20.4 | > 20 | 1.64 | 115.2 | 102.7
